Reference: ChEMBL document CHEMBL1201862, “PubChem BioAssay data set” (2004)
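Compound exposure: 48 hours, 5 concentrations, 96-well plates. GI50: concentration for 50% inhibition of growth.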 Active and inactive are the calls of the source. No stated cut-off is given here; in the data, active = GI50 up to about 1.1 µM and inactive = higher.

Key:
Assay in all cases: NCI tumour cell line growth inhibition, 48 h
TK-10 = system: TK-10
SNB-19 = system: SNB-19
RXF 393 = system: RXF 393
M14 = system: M14
SN12C = system: SN12C
OVCAR-8 = system: OVCAR-8
COLO 205 = system: COLO 205
RPMI-8226 = system: RPMI-8226
IGROV-1 = system: IGROV-1
Hs-578T = system: Hs-578T
SK-MEL-5 = system: SK-MEL-5
MDA-MB-435 = system: MDA-MB-435
OVCAR-4 = system: OVCAR-4
HCT-15 = system: HCT-15
SW-620 = system: SW-620
Malme-3M = system: Malme-3M
NCI-H226 = system: NCI-H226
OVCAR-5 = system: OVCAR-5
LOX IMVI = system: LOX IMVI
786-0 = system: 786-0
MDA-N = system: MDA-N
KM12 = system: KM12
SNB-75 = system: SNB-75
UO-31 = system: UO-31
MCF7 = system: MCF7
HOP-62 = system: HOP-62
A549 = system: A549
U-251 = system: U-251
SK-MEL-2 = system: SK-MEL-2
HL-60 = system: HL-60
UACC-257 = system: UACC-257
UACC-62 = system: UACC-62
SK-OV-3 = system: SK-OV-3
SF-295 = system: SF-295
NCI-H460 = system: NCI-H460
HCC 2998 = system: HCC 2998
MDA-MB-231 = system: MDA-MB-231
BT-549 = system: BT-549
MOLT-4 = system: MOLT-4
SF-268 = system: SF-268
HT-29 = system: HT-29
DU-145 = system: DU-145
SK-MEL-28 = system: SK-MEL-28
A498 = system: A498
CAKI-1 = system: CAKI-1
SR = system: SR
ACHN = system: ACHN
EKVX = system: EKVX
SF-539 = system: SF-539
PC-3 = system: PC-3
NCI-H522 = system: NCI-H522
NCI-H23 = system: NCI-H23
HCT-116 = system: HCT-116
CCRF-CEM = system: CCRF-CEM
HOP-92 = system: HOP-92
NCI/ADR-RES = system: NCI/ADR-RES
OVCAR-3 = system: OVCAR-3
T47D = system: T47D
K562 = system: K562

Measured: GI50

CC1(C)CCC[C@@]2(C)C1CC[C@@]1(CO)O[C@H](C3=CC(=O)OC3O)C[C@H]12 (stereo partly specified)
7.57 µM: HCT-15
inactive: TK-10 19.7 µM | SNB-19 16.2 µM | RXF 393 11 µM | M14 11.8 µM | SN12C 13.3 µM | OVCAR-8 15.6 µM | COLO 205 11.1 µM | RPMI-8226 3.87 µM | IGROV-1 18.1 µM | Hs-578T 14.7 µM | SK-MEL-5 5.38 µM | MDA-MB-435 11.5 µM | OVCAR-4 14.5 µM | SW-620 7.74 µM | Malme-3M 11 µM | NCI-H226 18.2 µM | OVCAR-5 22.8 µM | LOX IMVI 1.56 µM | 786-0 15 µM | MDA-N 12.6 µM | KM12 20.8 µM | SNB-75 15.3 µM | UO-31 15.2 µM | MCF7 6.82 µM | HOP-62 14.9 µM | A549 30.5 µM | U-251 15.1 µM | SK-MEL-2 14.4 µM | HL-60 1.66 µM | UACC-257 14.9 µM | UACC-62 3.89 µM | SK-OV-3 29.4 µM | SF-295 21.5 µM | NCI-H460 17.7 µM | HCC 2998 17.4 µM | MDA-MB-231 18.8 µM | BT-549 8.26 µM | MOLT-4 3.03 µM | SF-268 19.7 µM | HT-29 13 µM | DU-145 13.3 µM | SK-MEL-28 11.4 µM | A498 15 µM | CAKI-1 15 µM | SR 2.71 µM | ACHN 14 µM | EKVX 22.9 µM | SF-539 19.3 µM | PC-3 13.8 µM | NCI-H522 3.69 µM | NCI-H23 13.6 µM | HCT-116 6.1 µM | CCRF-CEM 2.74 µM | HOP-92 19.1 µM | NCI/ADR-RES 15 µM | OVCAR-3 14.9 µM | T47D 12.2 µM | K562 4.76 µM

Cc1cc(C)c(O)c(CN2CCN(C(C)C)CCN(C(C)C)CC2)c1
46.7 µM: HCT-15
inactive: TK-10 36.2 µM | SNB-19 63.1 µM | RXF 393 16 µM | M14 12.4 µM | SN12C 27.5 µM | OVCAR-8 22.2 µM | COLO 205 18.6 µM | RPMI-8226 21.9 µM | IGROV-1 2.26 µM | Hs-578T 24.5 µM | SK-MEL-5 > 10 µM | MDA-MB-435 18 µM | OVCAR-4 46.6 µM | SW-620 42.8 µM | Malme-3M 13.8 µM | NCI-H226 12 µM | OVCAR-5 18.7 µM | LOX IMVI 16.1 µM | 786-0 42.9 µM | MDA-N 20.6 µM | KM12 17 µM | SNB-75 33.7 µM | UO-31 18.6 µM | MCF7 20.8 µM | A549 32.3 µM | U-251 37 µM | SK-MEL-2 37.8 µM | HL-60 11.7 µM | UACC-257 18.5 µM | UACC-62 27 µM | SF-295 15.7 µM | NCI-H460 34.7 µM | HCC 2998 18.8 µM | MDA-MB-231 48.3 µM | BT-549 22 µM | MOLT-4 11.7 µM | SF-268 54.3 µM | DU-145 85.7 µM | SK-MEL-28 24.7 µM | A498 > 100 µM | CAKI-1 75.2 µM | SR 17.9 µM | ACHN 32.1 µM | EKVX 78.5 µM | SF-539 10.4 µM | PC-3 22.3 µM | NCI-H522 16.1 µM | HCT-116 7.41 µM | CCRF-CEM 19.1 µM | HOP-92 13.7 µM | NCI/ADR-RES 25.9 µM | OVCAR-3 22.2 µM | T47D 22 µM | K562 17.9 µM

CSc1nc(SC)c2c(C)cn(C3OC(C)C(O)C(O)C3O)c2n1 (stereo unspecified)
74.1 µM: HCT-15
active: CAKI-1 < 0.01 µM
inactive: TK-10 62.2 µM | SNB-19 57 µM | RXF 393 > 100 µM | M14 87.1 µM | SN12C > 100 µM | OVCAR-8 74.6 µM | COLO 205 86.7 µM | RPMI-8226 42.4 µM | IGROV-1 70 µM | Hs-578T 45.6 µM | SK-MEL-5 63.4 µM | MDA-MB-435 40 µM | OVCAR-4 64.1 µM | SW-620 > 100 µM | Malme-3M > 100 µM | NCI-H226 66.7 µM | OVCAR-5 > 100 µM | LOX IMVI 31.8 µM | 786-0 > 100 µM | MDA-N 67.6 µM | KM12 56.8 µM | SNB-75 52.6 µM | UO-31 36.3 µM | MCF7 58.9 µM | HOP-62 > 100 µM | A549 74.5 µM | U-251 62.7 µM | SK-MEL-2 73.5 µM | HL-60 46.2 µM | UACC-62 76.6 µM | SK-OV-3 > 100 µM | SF-295 57 µM | NCI-H460 43.1 µM | HCC 2998 57.5 µM | MDA-MB-231 52.7 µM | BT-549 39.2 µM | MOLT-4 39.3 µM | SF-268 95.7 µM | HT-29 53.7 µM | DU-145 62.5 µM | SK-MEL-28 84.3 µM | A498 27.9 µM | SR 33.3 µM | ACHN 58.2 µM | EKVX > 100 µM | SF-539 21 µM | PC-3 43.9 µM | NCI-H522 96.2 µM | NCI-H23 94 µM | HCT-116 > 100 µM | CCRF-CEM 45.7 µM | HOP-92 32.6 µM | NCI/ADR-RES 67.3 µM | OVCAR-3 48.8 µM | T47D 34.1 µM
